Activity calls are given as the source filed them.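 How the source made its calls: active means IC50 dose giving half inhibition of the KLF5 reporter of 10 micromolar or lower; inactive means IC50 above 10 micromolar.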

For this assay, the system named is DLD-1 KLF5 promoter-luciferase reporter, luminescence. As to the kind of experiment: KLF5 promoter reporter inhibitors, dose response, luminescence, DLD-1 cells, luciferase reporter (AID 1973).
On to `CC(C)Oc1ccc(C(=O)Nc2nc3ccccc3[nH]2)cc1`, for which the IC50 was 1.65 µM. As to `Cc1ccc(C(=O)Nc2cnc3ccccc3c2)cc1`, the IC50 was 0.735 µM.

Take `COc1cc(/C=C/[N+](=O)[O-])ccc1OCc1cccc(C(=O)O)c1`: the IC50 was 2.07 µM.

As for `C[C@]12CCC3C(CCC4=CC(O)CC[C@@]43/C=N/O)C1(O)CCC2C1=CC(=O)OC1` (some centres undefined), the IC50 is 2.19 µM. To `N/C(=N\OCc1ccc([N+](=O)[O-])cc1)c1ccccn1` belongs 1.05 µM. To `CCOC(=O)c1sc(NC(=O)c2cc3c(s2)CCC(C)C3)nc1C` (centres undefined) belongs 0.109 µM. To `O=C(Nc1cccc(C(=O)O)c1)Nc1ccc2c(c1)OCO2` belongs 0.838 µM; to `O=C(Nc1cccc(O)c1)c1cc(-c2ccc3c(c2)OCO3)on1`, 2.06 µM; to `CC1CCN(Cc2c(C(=O)N/N=C/c3ccccc3O)nnn2-c2nonc2N)CC1`, 1.81 µM. As to `COc1ccc(OC)c(Nc2cc(C)nc3nc(C)nn23)c1`, the IC50 is 0.486 µM.

For the molecule `CN(C(=O)COC(=O)/C=C/c1cccc([N+](=O)[O-])c1)C1CCS(=O)(=O)C1` (centres undefined), the IC50 is 0.518 µM. To `C#Cc1ccc([C@@H]2C=C(C(=O)N3CCN(Cc4ccccc4)CC3)O[C@H](OCCCCO)C2)cc1` belongs 2.72 µM; to `CC1CCN(c2ccc(-c3cccs3)nn2)CC1`, 1.26 µM; to `COC(=O)c1ccc(Oc2cc(C)nc(-n3nc(C)cc3C)n2)cc1`, 0.52 µM. The value for `O=C(N/N=C/c1cc(Cl)ccc1O)c1cccnc1` was 1.63 µM; that for `COc1ccc(/C=N/NC(=O)CCn2c3ccccc3c3ccccc32)cc1O` was 1.85 µM; that for `O=C(N/N=C/c1cc(Br)ccc1OC(=O)c1ccc(Br)cc1)c1ccncc1` was 1.54 µM. To `COc1ccc(Cl)cc1C(=O)Nc1nc2ccccc2[nH]1` belongs 4.03 µM; to `O=C(CCCc1ccccc1)c1ccc2c(c1)OCCO2`, 1.24 µM. Regarding `C/C(=N\NC(=O)c1n[nH]c2c1CCC2)c1cccs1`, the IC50 was 2.43 µM. To `Cc1cc(-c2ccccc2)n(-c2cc(N/N=C/c3ccccc3O)ncn2)n1` belongs 0.998 µM; to `O=C(O)c1ccc(N/N=C/c2c[nH]c3ccccc23)cc1`, 1.52 µM. Take `CN(C)c1ccc(Nc2nc(N)c3ccccc3n2)cc1`: the IC50 is 2.52 µM. To `O=C(N/N=C/c1cc(O)ccc1Br)c1cccnc1` belongs 1.71 µM. As to `Oc1cccc(/C=N/Nc2ccc(Cl)nn2)c1O`, the IC50 is 1.9 µM. The value for `O=C(NCCc1ccccc1)c1ccc2c(c1)OCCO2` was 1.06 µM. To `O=C(Nc1nc2cc3c(cc2s1)OCCO3)c1ccco1` belongs 1.55 µM; to `COC(=O)C1=C(CN2CCCc3ccccc32)NC(=O)NC1c1ccc(F)cc1` (centres undefined), 3.05 µM. To `Cc1cc(/C=N/Nc2nc(N)ncc2[N+](=O)[O-])c(C)n1-c1ccccc1F` belongs 0.401 µM; to `O=C(O)CSCC(=O)Nc1ccc(C2CCCCC2)cc1`, 1.29 µM; to `Cc1ccc(S(=O)(=O)Nc2cc(Cl)c(O)c3ncccc23)cc1`, 1.82 µM.

As for `O=C(NCCc1ccccc1F)c1ccc2c(c1)OCCO2`, the IC50 was 0.423 µM. Regarding `CNC1=C(N(C(C)=O)c2ccc(Br)cc2)C(=O)c2ccccc2C1=O`, the IC50 is 1.86 µM.

With `CCN1C=CC(=C2C(=O)c3ccccc3C2=O)C=C1`, the IC50 was 0.95 µM.

For the molecule `COc1ccc(OCc2cccc(C(=O)Nn3cc([N+](=O)[O-])cn3)c2)cc1`, the IC50 is 0.332 µM. To `Cc1ccc2nc(NC(=O)CCCc3nc4ccccc4s3)sc2c1` belongs 0.207 µM; to `COc1cc(/C=N/O)ccc1OCc1ccc(C(=O)O)cc1`, 0.82 µM. On to `CN(C)c1ccc(/C=N/Nc2cccc(C(=O)O)c2)cc1`, for which the IC50 was 0.617 µM. To `COc1ccc(C(=O)N/N=C/c2cc(Br)ccc2O)cc1OC` belongs 1.56 µM; to `Oc1ccc(N=Nc2ccccc2C(F)(F)F)c2cccnc12`, 1.9 µM; to `CCOC(=O)c1sc(NC(=O)c2sc(C)nc2C)nc1C`, > 39.8 µM (inactive). To `NS(=O)(=O)c1ccc(N=Nc2ccc(O)c3ncccc23)cc1` belongs 3.18 µM; to `Cc1nc2ccccn2c1-c1csc(Nc2cccc(O)c2)n1`, 0.395 µM; to `C[C@@H]1O[C@@H](O[C@H]2C[C@@H](O)[C@]3(CO)[C@H]4[C@H](O)C[C@]5(C)[C@@H](C6COC(=O)C6)CC[C@]5(O)[C@@H]4CC[C@]3(O)C2)[C@H](O)[C@H](O)[C@H]1O` (some centres undefined), 3.85 µM. To `Cn1cccc1-c1cc(C(=O)N/N=C/c2cc(Br)ccc2O)[nH]n1` belongs 1.5 µM; to `Oc1cccc2ccc(Nc3ccccn3)nc12`, 2.45 µM. With `Cc1ccc(C(=O)N/N=C/c2cc(Br)ccc2O)cn1`, the IC50 was 1.91 µM. As for `CC(C)(C)c1ccc(-c2noc(CCC(=O)Nc3cccnc3)n2)cc1`, the half-inhibitory concentration (IC50) is 0.104 µM. The value for `Cc1cc(C(=O)COC(=O)c2ccccc2O)c(C)n1Cc1cccs1` was 0.563 µM; that for `O=C(Nc1ccc(N2CCCCC2)cc1)c1ccccn1` was 0.703 µM. The value for `COc1cccc(/C=N/Nc2ncc(C(F)(F)F)cc2Cl)c1O` was 0.562 µM. Take `CC(C)(C)c1ccc(C(=O)O/N=C(\N)c2ccccc2)cc1`: the IC50 is 1.75 µM. The value for `O=C(N/N=C/c1c(O)ccc2ccccc12)c1ccc(Br)o1` was 1.78 µM; that for `C[C@@H]1O[C@@H](O[C@H]2C[C@@H](O)[C@]3(CO)[C@H]4[C@H](O)C[C@]5(C)[C@@H](C6=CC(=O)OC6)CC[C@]5(O)[C@@H]4CC[C@]3(O)C2)[C@H](O)[C@H](O)[C@H]1O` was 0.165 µM; that for `COc1ccc2[nH]c(C(=O)N/N=C/c3ccc(OC)c(O)c3)cc2c1` was 5.12 µM. The value for `CCCS(=O)(=O)c1cnc(C2COc3ccccc3O2)nc1N` (centres undefined) was 1.4 µM.

Consider `COc1ccc(C(=O)Nc2nc3ccccc3s2)c(OC)c1`, for which the half-inhibitory concentration (IC50) is 2.35 µM. As to `Clc1ccccc1/C=C/c1nc(-c2ccccn2)no1`, the IC50 was 1.54 µM. The value for `COc1ccc(-n2ncc3c(N4CCCCC4)ncnc32)cc1` was 1.36 µM; that for `CCN(CC)S(=O)(=O)c1cc(OC)ccc1N=Nc1ccc(O)c2ncccc12` was 2.03 µM; that for `O=C(N/N=C/c1cccc(Oc2ccccc2)c1)c1ccccc1F` was 1.24 µM. To `CCCCN=C[C@]12CCC(O)CC1(O)CCC1[C@@H]2CC[C@]2(C)[C@H](C3C=CC(=O)O3)CCC12O` (some centres undefined) belongs 2.02 µM; to `CCc1ccn2cc(-c3ccc4c(c3)OCO4)nc2c1`, 1.9 µM. On to `CN(C)c1ccc(/C=C/c2nc3ccccc3c(=O)[nH]2)cc1`, for which the IC50 is 1.51 µM. As for `Cc1ccc(C(=O)O/N=C(\N)c2ccccn2)c(Cl)c1`, the IC50 was 2.8 µM. To `CCNC(=S)NNC(=O)c1cc(-c2ccc(OCC)cc2)nc2ccccc12` belongs 4.17 µM; to `CN1CCN(c2ccc(-c3ccc4ccccc4n3)cc2)CC1`, 0.166 µM. Consider `CCCc1ccc(C(=O)O/N=C(\N)c2ccccn2)cc1`, for which the IC50 is 0.107 µM. To `Cc1cc(C(=O)CN2C(=O)c3ccccc3S2(=O)=O)c(C)n1CC1CCCO1` (centres undefined) belongs 0.267 µM; to `CN(CCO)c1ccc(/C=N/Nc2nncc3ccccc23)cc1`, 1.35 µM.

For `Cc1ccc(C(=O)O/N=C(\N)c2ccccn2)c(C)c1`, the 50% inhibitory concentration (IC50) was 1.42 µM.

In the case of `O=C(NCCc1ccccc1)c1ccc2c(c1)OCCCO2`, the IC50 is 0.421 µM. As for `O=C(Nc1cccnc1)c1cccs1`, the IC50 was 0.95 µM. The value for `COc1ccc2nc(SCC(=O)NC3CCCC3)c(C)cc2c1` was 1.36 µM.

The values are drawn from PubChem BioAssay AID1973 (The Scripps Research Institute Molecular Screening Center, 2009).
